# In patent US6051557A, “Methods of enhancing functioning of the upper gastrointestinal tract” (1149336 Ontario Inc., priority 1998, dated 2000):
# How the values were obtained:
# Type in all cases: in vivo
# [1] = tested on: mucosal epithelium and muscle layer of the esophagus; experiment: BrdU cell proliferation in mouse esophagus; settings: female CD1 mice, 2.5 μg s.c. twice daily, 50 hr period, vs PBS
# Source text: In this experiment, the effect of GLP-2 on cell proliferation of the mucosal epithelium and muscle layer of the esophagus was examined.
# Female CD1 mice (6 weeks of age, approx. 25 g, Charles River) were housed in plastic bottom, wire lid cages and maintained on a 12 hr light/dark cycle and allowed chow and water ad libitum. The mice were weighed using a Mettler PJ300 scale and randomly allocated to either the control group (phosphate buffer saline injection ("PBS")) or the treatment group (human [Gly^2 ]GLP-2 injection). Each control or treatment group consisted of 2 mice housed together in 1 cage.
# The female CD1 mice were treated (subcutaneously) with either human [Gly^2 ]GLP-2 2.5 μg or PBS alone, twice daily (8 a.m. and 6 p.m.) for 2 days prior to the bromodeoxyuridine ("BrdU") injection (50 ug/g body weight, in 0.5 ml). The mice received a total of 5 injections of either human [Gly^2 ]GLP-2 or saline over the previous 50 hours. Mice were fasted 21 hours before sacrifice. The mice were sacrificed 2 hours after receiving the BrdU injection. Upon sacrifice, sections of distal esophagus (the last 2 cm of esophagus adjacent to the gastroduodenal junction) were taken for histological analysis.
# The esophageal tissues were fixed in 10% buffered formalin for over 24 hours and then placed in 70% alcohol prior to processing. […]
# esophagus = experiment: total protein content of mouse esophagus (modified Bradford assay); settings: female CD1 mice, 2.5 ug s.c. twice daily for 10 days, vs PBS
# Protocol: In this experiment, the effect of human [Gly^2 ]GLP-2 on protein synthesis in the mouse esophagus was examined. Female CD1 mice (6 weeks old) were housed and fed as described in Example 1. Two groups of mice (n=5 per group) were treated twice daily (subcutaneously) with either 0.5 ml PBS alone (control) or 2.5 ug in 0.5 ml PBS for 10 days. Following treatment, mice were anesthetized with CO2 and sacrificed for analysis. One (1) cm segments of esophagus tissue, between 2-4 cm proximal to the gastroduodenal junction, were harvested for analysis of total cellular protein. The 1 cm esophageal segments were placed in 1 ml of PBS and homogenized using a Polytron. Aliquots of the homogenate were taken for protein determination of protein content using the modified Bradford assay (BIORAD).
# stomach = stomach mass after oral administration in drinking water; settings: female CD1 mice, approx. 100 μg per day in drinking water, 12 days, p<0.05 vs normal drinking water
# Protocol: In this experiment, the effect of GLP-2 on the stomach mass was examined. Female CD1 mice (6 weeks old) were treated with human [[…] ]GLP-2 by oral administration in drinking water. The drinking water contained 4.3 μg/ml of human [[…] ]GLP-2 and was prepared fresh daily. Each mouse received approximately 100 μg of human [[…] ]GLP-2 per day. Following 12 days of treatment the mice were fasted for 24 hours, anesthetized with CO2 and sacrificed. The stomach of each mouse was removed and weighed.
# [2] = tested on: indomethacin induced mucosal epithelial damage; experiment: indomethacin induced gastroenterocolitis in mice; settings: 0.75 μg s.c. twice daily
# Source text: In this experiment, the prophylactic and therepeutic effect of GLP-2 on indomethacin induced mucosal epithelial damage was studied.
# GLP-2 administration to mice and rats stimulates mucosal growth in both the small and large intestine via activation of crypt cell proliferation and inhibition of enterocyte apoptosis. To address the possibility that GLP-2 may be useful for the therapeutic and/or prophylactic treatment of mucosal epithelial damage, we have studied the use of a novel human GLP-2 analog, h[Gly^2 ]-GLP-2, in mice with experimental indomethacin induced gastroenterocolitis.
# Six to eight week old female CD1 mice (approximately 22-28 g, Charles River) were housed in plastic bottom, wire lid cages and maintained on a 12 hr light/dark cycle and allowed chow and water ad libitum throughout the study. The day prior to commencing the experiment, mice were weighed using a Mettler PJ300 scale and randomly allocated to a treatment group. Each treatment group consisted of 5 mice housed together. Subcutaneous injections of PBS or h[Gly^2 ]-GLP-2 peptide were given in the right hind quarter twice a day at 9 am and 7 pm. Injections started 4 days before indomethacin administration. Mice were fasted the night prior to receiving the first dose of indomethacin.
# Mice were sacrificed between 9 am and 5 pm. […] Small and large bowel length were also measured. […]
smiles,measurement,setting,value
CC[C@H](C)[C@H](NC(=O)[C@H](Cc1ccccc1)NC(=O)[C@H](CC(=O)O)NC(=O)[C@H](CCCNC(=N)N)NC(=O)[C@H](C)NC(=O)[C@H](C)NC(=O)[C@H](CC(C)C)NC(=O)[C@H](CC(N)=O)NC(=O)[C@H](CC(=O)O)NC(=O)[C@H](CC(C)C)NC(=O)[C@@H](NC(=O)[C@@H](NC(=O)[C@H](CC(N)=O)NC(=O)[C@H](CCSC)NC(=O)[C@H](CCC(=O)O)NC(=O)[C@H](CC(=O)O)NC(=O)[C@H](CO)NC(=O)[C@H](Cc1ccccc1)NC(=O)[C@H](CO)NC(=O)CNC(=O)[C@H](CC(=O)O)NC(=O)CNC(=O)[C@@H](N)Cc1c[nH]cn1)[C@@H](C)O)[C@@H](C)CC)C(=O)N[C@@H](CC(N)=O)C(=O)N[C@@H](Cc1c[nH]c2ccccc12)C(=O)N[C@@H](CC(C)C)C(=O)N[C@H](C(=O)N[C@@H](CCC(N)=O)C(=O)N[C@H](C(=O)N[C@@H](CCCCN)C(=O)N[C@H](C(=O)N[C@H](C(=O)N[C@@H](CC(=O)O)C(=O)O)[C@@H](C)O)[C@@H](C)CC)[C@@H](C)O)[C@@H](C)CC [human [Gly^2]GLP-2],cellular proliferation of the mucosal epithelium of the esophagus (number of BrDU-positive cells),[1],significant increases
same,cellular proliferation of the muscle layer of the esophagus (number of BrDU-positive cells),[1],significant increases
same,protein synthesis (total protein content) in esophagus tissue,esophagus,increase
same,weights of the stomachs,stomach,significantly increase
same,"majority of parameters assessed, especially markers of epithelial damage/inflammation","[2]; indomethacin-treated mice, vs saline",significantly improved
same,survival,"[2]; treatment groups II-V, indomethacin 7 mg/kg, saline-treated controls 45-50%",75-95%
